Read-outs that look alike come from different tables or passages of the source.
Columns and labels:
Type in all cases: cell-based
[1] = tested on: Human dermal fibroblasts from Friedreich's Ataxia patients; experiment: Rescue of BSO-stressed FRDA fibroblasts (Example A); details: FRDA fibroblasts GM04078, 1 mM BSO
Method: Test samples, 4 reference compounds (idebenone, decylubiquinone, Trolox and α-tocopherol acetate), and solvent controls were tested for their ability to rescue FRDA fibroblasts stressed by addition of L-buthionine (S,R)-sulfoximine (BSO), as described in Jauslin et al., Hum. Mol. Genet. […] Mol. Genet. […] This specific BSO-mediated cell death can be prevented by administration of antioxidants or molecules involved in the antioxidant pathway, such as α-tocopherol, selenium, or small molecule glutathione peroxidase mimetics. However, antioxidants differ in their potency, i.e. the concentration at which they are able to rescue BSO-stressed FRDA fibroblasts.
Fetal Calf Serum was obtained from PAA Laboratories. Basic fibroblast growth factor and epidermal growth factor were purchased from PeproTech. Penicillin-streptomycin-glutamine mix, L-buthionine (S,R)-sulfoximine, (+)-α-tocopherol acetate, decylubiquinone, and insulin from bovine pancreas were purchased from Sigma. Trolox (6-Hydroxy-2,5,7,8-tetramethylchroman-2-carboxylic acid) was obtained from Fluka. Idebenone was obtained from Chemo Iberica. Calcein AM was purchased from Molecular Probes. Cell culture medium was made by combining 125 ml M199 EBS, 50 ml Fetal Calf Serum, 100 U/ml penicillin, 100 μg/ml streptomycin, 2 mM glutamine, 10 μg/ml insulin, 10 ng/ml EGF, and 10 ng/ml bFGF; MEM EBS was added to make the volume up to 500 ml. […] During the course of the experiments, this solution was stored at +4° C. The cells were obtained from the Coriell Cell Repositories (Camden, NJ; repository number GM04078) and grown in 10 cm tissue culture plates. Every third day, they were split at a 1:3 ratio.
The test samples were supplied in 1.5 ml glass vials. […] Once dissolved, they were stored at −20° C. Reference antioxidants (idebenone, decylubiquinone, α-tocopherol acetate and trolox) were dissolved in DMSO.
Test samples were screened according to the following protocol: A culture with FRDA fibroblasts was started from a 1 ml vial with approximately 500,000 cells stored in liquid nitrogen. […] Once confluent, fibroblasts were harvested. […] The remaining cells were distributed in 10 cm cell culture plates (500,000 cells/plate) for propagation. The plates were incubated overnight at 37° C. in a atmosphere with 95% humidity and 5% CO2 to allow attachment of the cells to the culture plate.
MTP medium (243 μl) was added to a well of the microtiter plate. […] Serial dilutions from the master solution were made. The period between the single dilution steps was kept as short as possible (generally less than 1 second).
Plates were kept overnight in the cell culture incubator. The next day, 10 μl of a 10 mM BSO solution were added to the wells, resulting in a 1 mM final BSO concentration. Forty-eight hours later, three plates were examined under a phase-contrast microscope to verify that the cells in the 0% control (wells E1-H1) were clearly dead. The medium from all plates was discarded, and the remaining liquid was removed by gently tapping the plate inversed onto a paper towel.
The plates were incubated for 50-70 minutes at room temperature. After that time the PBS was discarded, the plate gently tapped on a paper towel and fluorescence (excitation/emission wavelengths of 485 nm and 525 nm, respectively) was read on a Gemini fluorescence reader. Data was imported into Microsoft Excel (EXCEL is a registered trademark of Microsoft Corporation for a spreadsheet program) and used to calculate the EC50 concentration for each compound.
The compounds were tested three times, i.e., the experiment was performed three times, the passage number of the cells increasing by one with every repetition.
The viability of non-BSO treated fibroblasts was set as 100%, and the viability of the BSO- and compound-treated cells was calculated as relative to this value.

[2] = tested on: human dermal fibroblasts from Huntington's patients; experiment: Rescue of BSO-stressed fibroblasts from Huntington's patients (Example B); details: Fibroblast, Huntington's fibroblasts GM 04281, screen as Example A, read-out: protection against Hungtington's, EC50
Method: The compounds were tested for their ability to rescue human dermal fibroblasts from Huntington's patients from oxidative stress.

[3] = tested on: human dermal fibroblasts from LHON patients; experiment: Rescue of BSO-stressed fibroblasts from LHON patients (Example C); details: Fibroblast, LHON fibroblasts GM03858, screen as Example A, read-out: protection against LHON, EC50
Method: The compounds were tested for their ability to rescue human dermal fibroblasts from LHON patients from oxidative stress.

[4] = read-out: protection against FRDA, EC50
[5] = Calcein AM viability, average of three values, read-out: EC50 Average
[6] = Calcein AM viability, experiment 1 of 3, read-out: EC50 Value 1
[7] = Calcein AM viability, experiment 2 of 3, read-out: EC50 Value 2
[8] = Calcein AM viability, experiment 3 of 3, read-out: EC50 Value 3

| Structure (SMILES) | EC50 [1, 4] | EC50 [2] | EC50 [3] | also measured |
| --- | --- | --- | --- | --- |
| CC(=O)N1CCN(C(=O)[C@@](C)(O)CCC2=C(C)C(=O)C(C)=C(C)C2=O)CC1 [(S)-2-(4-(4-acetylpiperazin-1-yl)-3-hydroxy-3-methyl-4-oxobutyl)-3,5,6-trimethylcyclohexa-2,5-diene-1,4-dione] | < 100 nM | < 100 nM | < 100 nM | – |
| CC(=O)Oc1c(C)c(C)c2c(c1C)CCC(C)(CCC[C@H](C)CCC[C@H](C)CCCC(C)C)O2 (stereo partly drawn) [alpha-tocopherol acetate, (+)-α-tocopherol acetate, reference compound] | – | – | – | EC50 [1, 5]: 300 nM; EC50 [1, 6]: 400 nM; EC50 [1, 7]: 150 nM; EC50 [1, 8]: 350 nM |
| CC1=C(C)C(=O)C(CCC(C)(O)C(=O)NCC(C)O)=C(C)C1=O (centres unmarked) [Example 30, 2-Hydroxy-N-(2-hydroxypropyl)-2-methyl-4-(2,4,5-trimethyl-3,6-dioxocyclohexa-1,4-dienyl)butanamide] | < 100 nM | – | < 100 nM | – |
| CC1=C(C)C(=O)C(CCC(C)(O)C(=O)NCCCN2CCCC2=O)=C(C)C1=O (centres unmarked) [Example 29, 2-Hydroxy-2-methyl-N-(3-(2-oxopyrrolidin-1-yl)-propyl)-4-(2,4,5-trimethyl-3,6-dioxocyclohexa-1,4-dienyl)butanamide] | – | < 100 nM | – | – |
| CC1=C(C)C(=O)C(CCC(C)(O)C(=O)N2CCN(C(=O)c3ccccc3)CC2)=C(C)C1=O (centres unmarked) [2-(4-(4-benzoylpiperazin-1-yl)-3-hydroxy-3-methyl-4-oxobutyl)-3,5,6-trimethylcyclohexa-2,5-diene-1,4-dione] | – | – | < 100 nM | – |
| COC1=C(OC)C(=O)C(CCCCCCCCCCO)=C(C)C1=O [Idebenone, reference compound] | – | – | – | EC50 [1, 5]: 1200 nM; EC50 [1, 6]: 1500 nM; EC50 [1, 7]: 1000 nM; EC50 [1, 8]: 1000 nM |
| CC1=C(C)C(=O)C(CC[C@@](C)(O)C(N)=O)=C(C)C1=O [(R)-2-hydroxy-2-methyl-4-(2,4,5-trimethyl-3,6-dioxocyclohexa-1,4-dienyl)butanamide] | < 100 nM | < 100 nM | < 100 nM | – |
| CC1=C(C)C(=O)C(CCC(C)(O)C(=O)N2CCCCC2)=C(C)C1=O (centres unmarked) [Example 42, 2-(3-Hydroxy-3-methyl-4-oxo-4-(piperidin-1-yl)butyl)-3,5,6-trimethylcyclohexa-2,5-diene-1,4-dione] | – | – | < 100 nM | – |
| CC1=C(C)C(=O)C(CCC(C)(O)C(=O)NCc2cccc(Cl)c2)=C(C)C1=O (centres unmarked) [N-(3-chlorobenzyl)-2-hydroxy-2-methyl-4-(2,4,5-trimethyl-3,6-dioxocyclohexa-1,4-dienyl)butanamide] | < 100 nM | < 100 nM | < 100 nM | – |
| CC1=C(C)C(=O)C(CCC(C)(O)C(=O)NCc2ccc(F)cc2)=C(C)C1=O (centres unmarked) [N-(4-fluorobenzyl)-2-hydroxy-2-methyl-4-(2,4,5-trimethyl-3,6-dioxocyclohexa-1,4-dienyl)butanamide] | < 100 nM | < 100 nM | < 100 nM | – |
| CC1=C(C)C(=O)C(CCC(C)(O)C(=O)NCCCO)=C(C)C1=O (centres unmarked) [Example 9, 2-Hydroxy-N-(3-hydroxypropyl)-2-methyl-4-(2,4,5-trimethyl-3,6-dioxocyclohexa-1,4-dienyl)butanamide] | < 100 nM | < 100 nM | < 100 nM | – |
| CC1=C(C)C(=O)C(CCC(C)(O)C(=O)NCc2ccncc2)=C(C)C1=O (centres unmarked) [2-hydroxy-2-methyl-N-(pyridin-4-ylmethyl)-4-(2,4,5-trimethyl-3,6-dioxocyclohexa-1,4-dienyl)butanamide] | – | – | < 100 nM | – |
| Cc1c(C)c2c(c(C)c1O)CCC(C)(C(=O)O)O2 (centres unmarked) [Trolox, 6-Hydroxy-2,5,7,8-tetramethylchroman-2-carboxylic acid, reference compound] | – | – | – | EC50 [1, 5]: 8700 nM; EC50 [1, 6]: 9000 nM; EC50 [1, 7]: 9000 nM; EC50 [1, 8]: 8000 nM |
| CC1=C(C)C(=O)C(CCC(C)(O)C(=O)N2CCN(C)CC2)=C(C)C1=O (centres unmarked) [Example 14, 2-(3-Hydroxy-3-methyl-4-(4-methylpiperazin-1-yl)-4-oxobutyl)-3,5,6-trimethylcyclohexa-2,5-diene-1,4-dione] | < 100 nM | < 100 nM | – | – |
| CCCCCCCCCCC1=C(C)C(=O)C(OC)=C(OC)C1=O [decylubiquinone, reference compound] | – | – | – | EC50 [1, 5]: 38 nM; EC50 [1, 6]: 50 nM; EC50 [1, 7]: 35 nM; EC50 [1, 8]: 30 nM |
| CC1=C(C)C(=O)C(CCC(C)(O)C(=O)N2CCCCCC2)=C(C)C1=O (centres unmarked) [2-(4-(azepan-1-yl)-3-hydroxy-3-methyl-4-oxobutyl)-3,5,6-trimethylcyclohexa-2,5-diene-1,4-dione] | – | – | < 100 nM | – |
| CC1=C(C)C(=O)C(CCC(C)(O)C(=O)NCCc2ccccc2F)=C(C)C1=O (centres unmarked) [N-(2-fluorophenethyl)-2-hydroxy-2-methyl-4-(2,4,5-trimethyl-3,6-dioxocyclohexa-1,4-dienyl)butanamide] | < 100 nM | – | < 100 nM | – |
| CC1=C(C)C(=O)C(CCC(C)(O)C(=O)NCCC(C)C)=C(C)C1=O (centres unmarked) [Example 7, 2-Hydroxy-N-isopentyl-2-methyl-4-(2,4,5-trimethyl-3,6-dioxocyclohexa-1,4-dienyl)butanamide] | – | – | < 100 nM | – |
| COc1ccc(NC(=O)C(C)(O)CCC2=C(C)C(=O)C(C)=C(C)C2=O)cc1 (centres unmarked) [2-hydroxy-N-(4-methoxyphenyl)-2-methyl-4-(2,4,5-trimethyl-3,6-dioxocyclohexa-1,4-dienyl)butanamide] | < 100 nM | < 100 nM | – | – |
| CC1=C(C)C(=O)C(CC[C@](C)(O)C(=O)N2CCC(O)CC2)=C(C)C1=O [(S)-2-(3-hydroxy-4-(4-hydroxypiperidin-1-yl)-3-methyl-4-oxobutyl)-3,5,6-trimethylcyclohexa-2,5-diene-1,4-dione] | < 100 nM | – | < 100 nM | – |
| CC1=C(C)C(=O)C(CCC(C)(O)C(=O)NCCCS(C)(=O)=O)=C(C)C1=O (centres unmarked) [2-hydroxy-2-methyl-N-(3-(methylsulfonyl)propyl)-4-(2,4,5-trimethyl-3,6-dioxocyclohexa-1,4-dienyl)butanamide] | – | – | < 100 nM | – |
| CC1=C(C)C(=O)C(CCC(C)(O)C(=O)NCCc2cccc(F)c2)=C(C)C1=O (centres unmarked) [N-(3-fluorophenethyl)-2-hydroxy-2-methyl-4-(2,4,5-trimethyl-3,6-dioxocyclohexa-1,4-dienyl)butanamide] | < 100 nM | – | < 100 nM | – |
| CC1=C(C)C(=O)C(CCC(C)(O)C(=O)NCCCN2CCOCC2)=C(C)C1=O (centres unmarked) [Example 33, 2-Hydroxy-2-methyl-N-(3-morpholinopropyl)-4-(2,4,5-trimethyl-3,6-dioxocyclohexa-1,4-dienyl)butanamide] | < 100 nM | < 100 nM | – | – |
| CC1=C(C)C(=O)C(CCC(C)(O)C(=O)N(CCO)CCO)=C(C)C1=O (centres unmarked) [Example 35, 2-Hydroxy-N,N-bis(2-hydroxyethyl)-2-methyl-4-(2,4,5-trimethyl-3,6-dioxocyclohexa-1,4-dienyl)butanamide] | < 100 nM | < 100 nM | – | – |
| CC1=C(C)C(=O)C(CC[C@@](C)(O)C(=O)N2CCC(O)CC2)=C(C)C1=O [(R)-2-(3-hydroxy-4-(4-hydroxypiperidin-1-yl)-3-methyl-4-oxobutyl)-3,5,6-trimethylcyclohexa-2,5-diene-1,4-dione] | < 100 nM | – | < 100 nM | – |

From patent US11840497B2, “4-(p-quinonyl)-2-hydroxybutanamide derivatives for treatment of mitochondrial diseases” (PTC Therapeutics, Inc., priority 2007, dated 2023)
